According to PubChem BioAssay AID330 (DTP/NCI, 2004):
Where “and” joins values, the source holds several entries; their conditions need not be identical. Equal entries are not always repeated. Inconclusive results and toxic doses are left out. How the source made its calls: active means survival T/C of 150% or more; inactive means T/C below 125% in these data.

Tested on: P388 leukemia ip, CD2F1 mice, survival T/C
Test: NCI In Vivo Anticancer Drug Screen. Data for tumor model P388 Leukemia (intraperitoneal) in CD2F1 (CDF1) mice
Details: endpoint: median survival time, higher = longer survival
Method in brief: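 Mice carrying the transplanted tumor received test compound or vehicle. Survival was recorded in each group, and the value is the treated-group measurement divided by that of the vehicle-treated control group.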

[1] = dose: 25.0 mg/kg/injection, schedule: Q01DX009 (ip), vehicle: saline with Tween-80
[2] = dose: 50.0 mg/kg/injection, schedule: Q01DX009 (ip), vehicle: saline with Tween-80
[3] = dose: 100.0 mg/kg/injection, schedule: Q01DX009 (ip), vehicle: saline with Tween-80
[4] = dose: 50.0 mg/kg/injection, schedule: Q01DX009 (ip), vehicle: Klucel (hydroxypropylcellulose) (HPC)
[5] = dose: 100.0 mg/kg/injection, schedule: Q01DX009 (ip), vehicle: Klucel (hydroxypropylcellulose) (HPC)
[6] = dose: 200.0 mg/kg/injection, schedule: Q01DX009 (ip), vehicle: Klucel (hydroxypropylcellulose) (HPC)
[7] = dose: 60.0 mg/kg/injection, schedule: Q01DX005 (ip), vehicle: saline with Tween-80
[8] = dose: 120.0 mg/kg/injection, schedule: Q01DX005 (ip), vehicle: saline with Tween-80
[9] = dose: 240.0 mg/kg/injection, schedule: Q01DX005 (ip), vehicle: saline with Tween-80

Measured: T/C

C/C([O-])=N/c1n[n+](-c2ccc(Cl)cc2)no1
inactive: dose: 3.12 mg/kg/injection, schedule: Q01DX009 (ip), vehicle: other 98 % of control | dose: 6.25 mg/kg/injection, schedule: Q01DX009 (ip), vehicle: other 100 % of control | dose: 12.5 mg/kg/injection, schedule: Q01DX009 (ip), vehicle: other 103 % of control | dose: 25.0 mg/kg/injection, schedule: Q01DX009 (ip), vehicle: other 101 % of control | dose: 50.0 mg/kg/injection, schedule: Q01DX009 (ip), vehicle: other 112 % of control | dose: 100.0 mg/kg/injection, schedule: Q01DX009 (ip), vehicle: other 112 % of control

C[C@]12CCCC[C@@H]1CC[C@@H]1[C@@H]2[C@@H](O)C[C@@]2(C)[C@H]1CC[C@]2(C)O
inactive: dose: 100.0 mg/kg/injection, schedule: Q04DX003 (ip), vehicle: saline with Tween-80 100 % of control | dose: 200.0 mg/kg/injection, schedule: Q04DX003 (ip), vehicle: saline with Tween-80 100 % of control

CN(C)CSCN(C)C
inactive: [1] 103 % of control and 93 % of control | [2] 100 % of control and 113 % of control | [3] 102 % of control and 123 % of control

COC(=O)N1CC2C=CC1C(Cl)(C#N)C2 (stereo not drawn)
inactive: [4] 101 % of control | [5] 90 % of control | [6] 106 % of control

NC=NC(CCC(=O)O)C(=O)O (stereo not drawn)
inactive: dose: 50.0 mg/kg/injection, schedule: Q01DX005 (ip), vehicle: saline 106 % of control and 92 % of control | dose: 100.0 mg/kg/injection, schedule: Q01DX005 (ip), vehicle: saline 99 % of control

CC1(C)CC(OS(=O)(=O)c2ccc(Br)cc2)CC(C)(C)N1O
inactive: [4] 93 % of control | [5] 99 % of control | [6] 97 % of control

O=C(Cc1nc2ccc([N+](=O)[O-])cc2nc1CC(=O)c1cccnc1)c1cccnc1
inactive: [7] 97 % of control | [8] 92 % of control | [9] 90 % of control

CCCCCCCCCCCCNc1ncnc2[nH]ncc12
inactive: dose: 50.0 mg/kg/injection, schedule: Q01DX005 (ip), vehicle: saline with Tween-80 102 % of control | dose: 100.0 mg/kg/injection, schedule: Q01DX005 (ip), vehicle: saline with Tween-80 98 % of control | dose: 200.0 mg/kg/injection, schedule: Q01DX005 (ip), vehicle: saline with Tween-80 98 % of control

CC1=C(C#N)C(=N)OC1(C)C1CC(=O)C=CC1=O (stereo not drawn)
inactive: dose: 60.0 mg/kg/injection, schedule: Q01DX005 (ip), vehicle: suspension in saline 119 % of control

COC(=O)[CH2][Sn]([CH2]C(=O)OC)([c]1ccccc1)[c]1ccccc1
inactive: dose: 0.39 mg/kg/injection, schedule: Q01DX005 (ip), vehicle: Klucel (hydroxypropylcellulose) (HPC) 120 % of control | dose: 0.79 mg/kg/injection, schedule: Q01DX005 (ip), vehicle: Klucel (hydroxypropylcellulose) (HPC) 112 % of control

CSc1nc2c(=S)[nH]c(=S)[nH]c2s1
inactive: dose: 100.0 mg/kg/injection, schedule: Q04DX002 (ip), vehicle: Klucel (hydroxypropylcellulose) (HPC) 101 % of control | dose: 200.0 mg/kg/injection, schedule: Q04DX002 (ip), vehicle: Klucel (hydroxypropylcellulose) (HPC) 100 % of control | dose: 400.0 mg/kg/injection, schedule: Q04DX002 (ip), vehicle: Klucel (hydroxypropylcellulose) (HPC) 100 % of control

COc1cccc(CN2CCN(/N=C/c3c4c(O)c5c(O)c(C)c6c(c5c3O)C(=O)C(C)(O/C=C/C(OC)C(C)C(OC(C)=O)C(C)C(O)C(C)C(O)C(C)/C=C/C=C(C)C(=O)N4)O6)CC2)c1 (stereo not drawn)
inactive: dose: 12.5 mg/kg/injection, schedule: Q01DX009 (ip), vehicle: saline with Tween-80 120 % of control | [1] 118 % of control | [2] 112 % of control and 117 % of control | [3] 121 % of control

CC(=O)c1ccccc1OCC(O)CNc1ccc(Cl)cc1C(=O)c1ccccc1 (stereo not drawn)
inactive: [7] 99 % of control and 92 % of control | [8] 92 % of control | [9] 89 % of control and 96 % of control

CSCCC(N)C(=O)NCCS(=O)(=O)O (stereo not drawn)
inactive: dose: 60.0 mg/kg/injection, schedule: Q01DX005 (ip), vehicle: saline 105 % of control | dose: 120.0 mg/kg/injection, schedule: Q01DX005 (ip), vehicle: saline 109 % of control | dose: 240.0 mg/kg/injection, schedule: Q01DX005 (ip), vehicle: saline 102 % of control

C=CC(C)(C)C12CC3C(=O)N/C(=C\c4cnc[nH]4)C(=O)N3C1Nc1ccccc12 (stereo not drawn)
inactive: dose: 6.25 mg/kg/injection, schedule: Q01DX009 (ip), vehicle: Klucel (hydroxypropylcellulose) (HPC) 118 % of control and 97 % of control | dose: 6.25 mg/kg/injection, schedule: Q01DX009 (ip), vehicle: saline with Tween-80 86 % of control | dose: 12.5 mg/kg/injection, schedule: Q01DX009 (ip), vehicle: Klucel (hydroxypropylcellulose) (HPC) 116 % of control and 95 % of control | dose: 25.0 mg/kg/injection, schedule: Q01DX009 (ip), vehicle: Klucel (hydroxypropylcellulose) (HPC) 98 % of control and 106 % of control | [1] 92 % of control | [4] 106 % of control and 109 % of control | [2] 100 % of control
